Results taken from US11040027B2, “Protein kinase inhibitors for promoting liver regeneration or reducing or preventing hepatocyte death” (HEPAREGENIX GMBH, priority 2017, dated 2021).

How the values were obtained:
[1] = molecular target: BRaf (Homo sapiens, UniProt P15056); assay: KINOMEscan competition binding assay, selectivity BRaf versus MKK4; settings: Test conc. 0.1 μM; ratio of percent of control; N/E* per footnote
Method: The assay was performed by combining three components: DNA-tagged kinase; immobilized ligand; and a test compound. The ability of the test compound to compete with the immobilized ligand was measured via quantitative PCR of the DNA tag. The technology is described in detail in Fabian, M. A. et al. A small molecule-kinase interaction map for clinical kinase inhibitors. Nat. […] Nat.
The test compounds were provided as 10 mM stock solutions. The test solutions at indicated final concentrations were prepared at DiscoverX.

[2] = molecular target: T1, MKK4 (Homo sapiens, UniProt P45985); assay: KINOMEscan competition binding assay, MKK4; settings: read-out: Potency MKK4 (derived from % of control values, PoC)
T1 sequence (P45985 84-399): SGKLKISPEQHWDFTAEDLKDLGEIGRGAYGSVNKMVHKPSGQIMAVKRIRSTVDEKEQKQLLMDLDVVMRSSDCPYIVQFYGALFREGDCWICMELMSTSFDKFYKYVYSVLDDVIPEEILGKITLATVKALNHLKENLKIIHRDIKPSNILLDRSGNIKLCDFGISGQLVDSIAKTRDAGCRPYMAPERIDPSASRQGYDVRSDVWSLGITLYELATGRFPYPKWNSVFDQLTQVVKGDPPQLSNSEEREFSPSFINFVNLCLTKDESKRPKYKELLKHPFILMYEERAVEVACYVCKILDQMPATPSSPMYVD
Method: (§1) For investigation of the affinity to MKK4, MKK7 and JNK1, the kinases were produced in HEK-293 cells and subsequently tagged with DNA for qPCR detection. […] The liganded beads were blocked with excess biotin and washed with blocking buffer (SEABLOCK™ (Pierce), 1% BSA, 0.05% TWEEN®20, 1 mM DTT) to remove unbound ligand and to reduce nonspecific binding. […] All reactions were performed in polystyrene 96-well plates in a final volume of 0.135 mL. […] The kinase concentration in the eluates was measured by qPCR.

[3] = molecular target: JNK1 (Homo sapiens, UniProt P45983); assay: KINOMEscan competition binding assay, selectivity JNK1 versus MKK4; settings: ratio of percent of control
Chain of JNK1 (P45983 1-384 isoform P45983-2): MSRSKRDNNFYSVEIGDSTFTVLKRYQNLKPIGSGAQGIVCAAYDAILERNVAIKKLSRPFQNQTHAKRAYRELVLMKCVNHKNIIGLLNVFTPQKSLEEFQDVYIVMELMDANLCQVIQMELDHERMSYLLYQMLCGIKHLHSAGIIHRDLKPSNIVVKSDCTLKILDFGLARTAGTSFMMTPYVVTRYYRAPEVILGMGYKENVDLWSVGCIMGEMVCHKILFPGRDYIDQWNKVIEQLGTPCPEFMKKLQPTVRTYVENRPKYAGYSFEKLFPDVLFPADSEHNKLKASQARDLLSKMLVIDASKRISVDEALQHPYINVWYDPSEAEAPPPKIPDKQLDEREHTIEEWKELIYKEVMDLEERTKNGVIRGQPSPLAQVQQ

[4] = molecular target: T2, MKK7 (Homo sapiens, UniProt O14733); assay: KINOMEscan competition binding assay, selectivity MKK7 versus MKK4; settings: Test conc. 0.1 μM; ratio of percent of control; N/E* per footnote
T2 sequence (O14733 1-419): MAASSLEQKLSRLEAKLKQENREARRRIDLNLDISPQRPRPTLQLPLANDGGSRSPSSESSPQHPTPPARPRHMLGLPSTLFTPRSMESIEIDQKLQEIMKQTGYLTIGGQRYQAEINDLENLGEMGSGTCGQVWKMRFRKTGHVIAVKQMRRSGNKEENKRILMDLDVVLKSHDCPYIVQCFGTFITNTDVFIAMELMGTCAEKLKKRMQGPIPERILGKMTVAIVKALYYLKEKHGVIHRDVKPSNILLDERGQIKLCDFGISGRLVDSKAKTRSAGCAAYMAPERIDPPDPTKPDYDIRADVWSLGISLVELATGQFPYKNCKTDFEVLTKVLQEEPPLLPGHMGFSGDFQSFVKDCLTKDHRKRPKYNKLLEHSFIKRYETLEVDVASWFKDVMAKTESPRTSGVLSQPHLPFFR
Method: as §1

[5] = Test conc 0.1 μM, N/E* = PoC for JNK1 = 100

Chain of BRaf (P15056 whole entry): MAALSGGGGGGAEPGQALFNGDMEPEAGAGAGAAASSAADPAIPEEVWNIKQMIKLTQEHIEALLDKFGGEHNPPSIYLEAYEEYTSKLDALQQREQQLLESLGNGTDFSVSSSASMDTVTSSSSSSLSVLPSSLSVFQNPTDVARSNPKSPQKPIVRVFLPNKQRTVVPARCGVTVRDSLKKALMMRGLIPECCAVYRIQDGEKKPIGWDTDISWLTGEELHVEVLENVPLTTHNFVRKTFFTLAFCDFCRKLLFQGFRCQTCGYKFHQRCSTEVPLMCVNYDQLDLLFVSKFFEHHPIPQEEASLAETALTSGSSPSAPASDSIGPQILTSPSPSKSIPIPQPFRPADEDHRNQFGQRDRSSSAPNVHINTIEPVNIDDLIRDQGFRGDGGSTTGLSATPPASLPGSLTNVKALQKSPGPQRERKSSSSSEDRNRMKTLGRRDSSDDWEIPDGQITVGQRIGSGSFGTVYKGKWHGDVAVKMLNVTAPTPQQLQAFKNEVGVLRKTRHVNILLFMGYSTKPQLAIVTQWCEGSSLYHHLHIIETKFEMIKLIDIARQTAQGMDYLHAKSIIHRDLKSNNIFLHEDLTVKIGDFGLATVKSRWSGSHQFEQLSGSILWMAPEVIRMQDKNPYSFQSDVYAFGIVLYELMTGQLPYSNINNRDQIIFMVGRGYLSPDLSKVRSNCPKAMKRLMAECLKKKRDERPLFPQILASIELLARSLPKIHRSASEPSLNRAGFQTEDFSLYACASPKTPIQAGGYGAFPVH

Structure (SMILES): CCCS(=O)(=O)Nc1ccc(F)c(C(=O)c2c[nH]c3ncc(-c4ccc(F)c(F)c4)cc23)c1F [Example 16, N-(3-(5-(3,4-Difluorophenyl)-1H-pyrrolo[2,3-b]pyridine-3-carbonyl)-2,4-difluorophenyl)propane-1-sulfonamide]
- Selectivity BRaf/MKK4 [1]: 2.5
- remaining binding at 0.1 µM [2]: > 30%
- Selectivity JNK1/MKK4 ([3]; Test conc 10 μM): >100
- Selectivity MKK7/MKK4 [4]: 8

Structure (SMILES): CCCS(=O)(=O)Nc1ccc(F)c(C(=O)c2c[nH]c3ncc(-c4cccc5ccccc45)cc23)c1F [Example 18, N-(2,4-Difluoro-3-(5-(naphthalen-1-yl)-1H-pyrrolo[2,3-b]pyridine-3-carbonyl)phenyl)propane-1-sulfonamide]
- Selectivity BRaf/MKK4 [1]: 1.6
- remaining binding at 0.1 µM [2]: > 30%
- Selectivity JNK1/MKK4 ([3]; Test conc 10 μM): 40
- Selectivity MKK7/MKK4 [4]: 3

Structure (SMILES): CCCS(=O)(=O)Nc1cc(C)cc(C(=O)c2c[nH]c3ncc(-c4ccc(Cl)cc4)cc23)c1 [Example 24, N-(3-(5-(4-Chlorophenyl)-1H-pyrrolo[2,3-b]pyridine-3-carbonyl)-5-methylphenyl)propane-1-sulfonamide]
- Selectivity BRaf/MKK4 [1]: 0.9
- remaining binding at 0.1 µM [2]: > 30%
- Selectivity JNK1/MKK4 [3, 5]: N/E* (PoC for JNK1 = 100)
- Selectivity MKK7/MKK4 [4]: 1.0

Structure (SMILES): CCCS(=O)(=O)Nc1cccc(C(=O)c2c[nH]c3ncc(-c4ccc(Cl)cc4)cc23)c1C [Example 25, N-(3-(5-(4-Chlorophenyl)-1H-pyrrolo[2,3-b]pyridine-3-carbonyl)-2-methylphenyl)propane-1-sulfonamide]
- Selectivity BRaf/MKK4 [1]: 1.0
- remaining binding at 0.1 µM [2]: > 30%
- Selectivity JNK1/MKK4 [3, 5]: N/E* (PoC for JNK1 = 100)
- Selectivity MKK7/MKK4 [4]: 1.0

Structure (SMILES): CCCS(=O)(=O)Nc1ccc(F)c(C(=O)c2c[nH]c3ncc(-c4ccc(Cl)cc4Cl)cc23)c1F [Example 41, N-(3-(5-(2,4-Dichlorophenyl)-1H-pyrrolo[2,3-b]pyridine-3-carbonyl)-2,4-difluorophenyl)propane-1-sulfonamide]
- Selectivity BRaf/MKK4 [1]: 3.3
- remaining binding at 0.1 µM [2]: > 30%
- Selectivity JNK1/MKK4 [3, 5]: N/E* (PoC for JNK1 = 100)
- Selectivity MKK7/MKK4 [4]: 3.3

Structure (SMILES): CCCS(=O)(=O)Nc1ccc(F)c(C(=O)c2c[nH]c3ncc(-c4ccc(Cl)cc4F)cc23)c1F [Example 49]
- Selectivity BRaf/MKK4 [1]: 8.9
- remaining binding at 0.1 µM [2]: < 10%
- Selectivity JNK1/MKK4 [3, 5]: 7.1
- Selectivity MKK7/MKK4 [4]: N/E* (PoC for JNK1 = 100)

Structure (SMILES): CCCCS(=O)(=O)Nc1cccc(C(=O)c2c[nH]c3ncc(-c4ccc(F)cc4C)cc23)c1F [Example 51]
- Selectivity BRaf/MKK4 [1]: N/E* (PoC for JNK1 = 100)
- remaining binding at 0.1 µM [2]: < 10%
- Selectivity JNK1/MKK4 [3, 5]: N/E* (PoC for JNK1 = 100)
- Selectivity MKK7/MKK4 [4]: N/E* (PoC for JNK1 = 100)

Structure (SMILES): CCCS(=O)(=O)Nc1ccc(F)c(C(=O)c2c[nH]c3ncc(-c4ccc(O)cc4Cl)cc23)c1F [Example 94, N-(3-(5-(2-chloro-4-hydroxy-phenyl)-1H-pyrrolo[2,3-b]pyridine-3-carbonyl)-2,4-difluoro-phenyl)propane-1-sulfonamide]
- Selectivity BRaf/MKK4 [1]: 20
- remaining binding at 0.1 µM [2]: < 10%
- Selectivity JNK1/MKK4 [3, 5]: 25
- Selectivity MKK7/MKK4 [4]: 22

Structure (SMILES): CCCS(=O)(=O)Nc1ccc(F)c(C(=O)c2c[nH]c3ncc(-c4ccc(OCC)cc4Cl)cc23)c1F [Example 95, N-(3-(5-(2-chloro-4-ethoxy-phenyl)-1H-pyrrolo[2,3-b]pyridine-3-carbonyl)-2,4-difluorophenyl)-propane-1-sulfonamide]
- Selectivity BRaf/MKK4 [1]: 6.5
- remaining binding at 0.1 µM [2]: < 10%
- Selectivity JNK1/MKK4 [3, 5]: 8.6
- Selectivity MKK7/MKK4 [4]: N/E* (PoC for JNK1 = 100)

Structure (SMILES): CCCS(=O)(=O)Nc1ccc(F)c(C(=O)c2c[nH]c3ncc(-c4ccc(OC(C)C)cc4Cl)cc23)c1F [Example 96, N-(3-(5-(2-chloro-4-isopropoxy-phenyl)-1H-pyrrolo[2,3-b]pyridine-3-carbonyl)-2,4-difluorophenyl)-propane-1-sulfonamide]
- Selectivity BRaf/MKK4 [1]: 8.0
- remaining binding at 0.1 µM [2]: 10 to 30%
- Selectivity JNK1/MKK4 [3, 5]: 8.7
- Selectivity MKK7/MKK4 [4]: N/E* (PoC for JNK1 = 100)

Structure (SMILES): CCCOc1ccc(-c2cnc3[nH]cc(C(=O)c4c(F)ccc(NS(=O)(=O)CCC)c4F)c3c2)c(Cl)c1 [Example 97, N-(3-(5-(2-chloro-4-propoxy-phenyl)-1H-pyrrolo[2,3-b]pyridine-3-carbonyl)-2,4-difluorophenyl)-propane-1-sulfonamide]
- Selectivity BRaf/MKK4 [1]: 6.5
- remaining binding at 0.1 µM [2]: 10 to 30%
- Selectivity JNK1/MKK4 [3, 5]: 8.6
- Selectivity MKK7/MKK4 [4]: N/E* (PoC for JNK1 = 100)

Structure (SMILES): CCCS(=O)(=O)Nc1ccc(F)c(C(=O)c2c[nH]c3ncc(-c4ccc(OCCOC)cc4Cl)cc23)c1F [Example 98, N-(3-(5-(2-chloro-4-(2-methoxy-ethoxy)phenyl)-1H-pyrrolo[2,3-b]pyridine-3-carbonyl)-2,4-difluorophenyl)propane-1-sulfonamide]
- Selectivity BRaf/MKK4 [1]: 8.4
- remaining binding at 0.1 µM [2]: < 10%
- Selectivity JNK1/MKK4 [3, 5]: 16
- Selectivity MKK7/MKK4 [4]: 20

Structure (SMILES): CCCS(=O)(=O)Nc1ccc(F)c(C(=O)c2c[nH]c3ncc(-c4ccc(OC5CCCC5)cc4Cl)cc23)c1F [Example 99, N-(3-(5-(2-chloro-4-(cyclopentyl-oxy)phenyl)-1H-pyrrolo[2,3-b]pyridine-3-carbonyl)-2,4-difluorophenyl)propane-1-sulfonamide]
- Selectivity BRaf/MKK4 [1]: 1.9
- remaining binding at 0.1 µM [2]: > 30%
- Selectivity JNK1/MKK4 [3, 5]: 2.0
- Selectivity MKK7/MKK4 [4]: 2.0

Structure (SMILES): CCCS(=O)(=O)Nc1ccc(F)c(C(=O)c2c[nH]c3ncc(-c4ccc(OCC5CC5)cc4Cl)cc23)c1F [Example 100, N-(3-(5-(2-chloro-4-(cyclopropyl-methoxy)phenyl)-1H-pyrrolo[2,3-b]pyridine-3-carbonyl)-2,4-difluorophenyl)propane-1-sulfonamide]
- Selectivity BRaf/MKK4 [1]: 17
- remaining binding at 0.1 µM [2]: > 30%
- Selectivity JNK1/MKK4 [3, 5]: 2.2
- Selectivity MKK7/MKK4 [4]: N/E* (PoC for JNK1 = 100)

Structure (SMILES): CCCS(=O)(=O)Nc1ccc(F)c(C(=O)c2c[nH]c3ncc(-c4ccccc4)cc23)c1F [Example 101, N-(2,4-difluoro-3-(5-phenyl-1H-pyrrolo[2,3-b]pyridine-3-carbonyl)phenyl)propane-1-sulfonamide]
- Selectivity BRaf/MKK4 [1]: 7.2
- remaining binding at 0.1 µM [2]: < 10%
- Selectivity JNK1/MKK4 [3, 5]: 28
- Selectivity MKK7/MKK4 [4]: N/E* (PoC for JNK1 = 100)
